Test: xn = mol fraction of the nth substance listed
Conditions: Vibrating tube method

O=S=O [sulfur dioxide] + O=C=O
Conditions	mass density [kg/m3]
283.32 K, 5506 kPa, Liquid, x2 = 0.9503	916.4
283.32 K, 6002 kPa, Liquid, x2 = 0.9503	920.8
283.32 K, 6507 kPa, Liquid, x2 = 0.9503	925.6
283.32 K, 7000 kPa, Liquid, x2 = 0.9503	929.5
283.32 K, 7506 kPa, Liquid, x2 = 0.9503	934.7
283.32 K, 8008 kPa, Liquid, x2 = 0.9503	938.7
283.32 K, 9510 kPa, Liquid, x2 = 0.9503	949.7
283.32 K, 9995 kPa, Liquid, x2 = 0.9503	953.3
283.32 K, 10507 kPa, Liquid, x2 = 0.9503	956.6
283.32 K, 11007 kPa, Liquid, x2 = 0.9503	959.9
283.32 K, 12009 kPa, Liquid, x2 = 0.9503	966.2
283.32 K, 12514 kPa, Liquid, x2 = 0.9503	969.7
283.32 K, 13000 kPa, Liquid, x2 = 0.9503	972.6
283.32 K, 13536 kPa, Liquid, x2 = 0.9503	975.3
283.32 K, 14496 kPa, Liquid, x2 = 0.9503	980.8
283.32 K, 15011 kPa, Liquid, x2 = 0.9503	984.1
283.32 K, 15505 kPa, Liquid, x2 = 0.9503	986.8
283.32 K, 16044 kPa, Liquid, x2 = 0.9503	989.5
283.32 K, 16561 kPa, Liquid, x2 = 0.9503	992.4
283.32 K, 17047 kPa, Liquid, x2 = 0.9503	994.7
283.32 K, 17551 kPa, Liquid, x2 = 0.9503	996.8
283.32 K, 18520 kPa, Liquid, x2 = 0.9503	1001.7
283.32 K, 19016 kPa, Liquid, x2 = 0.9503	1004.1
283.32 K, 19496 kPa, Liquid, x2 = 0.9503	1006.2
283.32 K, 20038 kPa, Liquid, x2 = 0.9503	1008.7
283.32 K, 20507 kPa, Liquid, x2 = 0.9503	1011
283.32 K, 21035 kPa, Liquid, x2 = 0.9503	1013.2
283.32 K, 21504 kPa, Liquid, x2 = 0.9503	1015.3
283.32 K, 22046 kPa, Liquid, x2 = 0.9503	1017.6
283.32 K, 22565 kPa, Liquid, x2 = 0.9503	1019.8
283.32 K, 23052 kPa, Liquid, x2 = 0.9503	1021.8
283.32 K, 23509 kPa, Liquid, x2 = 0.9503	1023.3
283.32 K, 24535 kPa, Liquid, x2 = 0.9503	1027.4
283.32 K, 25025 kPa, Liquid, x2 = 0.9503	1029.4
283.32 K, 25509 kPa, Liquid, x2 = 0.9503	1031.3
283.32 K, 26038 kPa, Liquid, x2 = 0.9503	1033.5
283.32 K, 26503 kPa, Liquid, x2 = 0.9503	1034.9
283.32 K, 27023 kPa, Liquid, x2 = 0.9503	1037
283.32 K, 28043 kPa, Liquid, x2 = 0.9503	1040.7
283.32 K, 28527 kPa, Liquid, x2 = 0.9503	1042.4
283.32 K, 29081 kPa, Liquid, x2 = 0.9503	1044.1
283.32 K, 29470 kPa, Liquid, x2 = 0.9503	1045.7
283.32 K, 30008 kPa, Liquid, x2 = 0.9503	1047.3
283.32 K, 30506 kPa, Liquid, x2 = 0.9503	1049.6
283.32 K, 31007 kPa, Liquid, x2 = 0.9503	1050.9
283.32 K, 31500 kPa, Liquid, x2 = 0.9503	1052.8
283.32 K, 32033 kPa, Liquid, x2 = 0.9503	1054.6
283.32 K, 32516 kPa, Liquid, x2 = 0.9503	1056.2
283.32 K, 33032 kPa, Liquid, x2 = 0.9503	1057.9
283.32 K, 33527 kPa, Liquid, x2 = 0.9503	1059.6
283.32 K, 33995 kPa, Liquid, x2 = 0.9503	1060.8
283.32 K, 34989 kPa, Liquid, x2 = 0.9503	1064.3
283.32 K, 37026 kPa, Liquid, x2 = 0.9503	1070.5
283.32 K, 38461 kPa, Liquid, x2 = 0.9503	1074.6
283.32 K, 39056 kPa, Liquid, x2 = 0.9503	1076.1
283.32 K, 39558 kPa, Liquid, x2 = 0.9503	1077.4
283.32 K, 40729 kPa, Liquid, x2 = 0.9503	1080.4
283.33 K, 4307 kPa, Liquid, x2 = 0.9503	902.3
283.33 K, 4499 kPa, Liquid, x2 = 0.9503	904.4
283.33 K, 8543 kPa, Liquid, x2 = 0.9503	942.8
283.33 K, 9019 kPa, Liquid, x2 = 0.9503	946.2
283.33 K, 11512 kPa, Liquid, x2 = 0.9503	963
283.33 K, 14003 kPa, Liquid, x2 = 0.9503	978.2
283.33 K, 18078 kPa, Liquid, x2 = 0.9503	999.5
283.33 K, 24074 kPa, Liquid, x2 = 0.9503	1025.3
283.33 K, 40145 kPa, Liquid, x2 = 0.9503	1078.8
283.33 K, 40601 kPa, Liquid, x2 = 0.9503	1080.3
283.33 K, 40700 kPa, Liquid, x2 = 0.9503	1080.6
297.4 K, 4803 kPa, Gas, x2 = 0.9478	134.4
297.41 K, 100 kPa, Gas, x2 = 0.9478	1.8
297.41 K, 200 kPa, Gas, x2 = 0.9478	3.6
297.41 K, 2012 kPa, Gas, x2 = 0.9478	42.1
297.41 K, 2215 kPa, Gas, x2 = 0.9478	47.2
297.42 K, 51 kPa, Gas, x2 = 0.9478	1
297.42 K, 397 kPa, Gas, x2 = 0.9478	7.5
297.42 K, 502 kPa, Gas, x2 = 0.9478	9.4
297.42 K, 1817 kPa, Gas, x2 = 0.9478	37.6
297.42 K, 2421 kPa, Gas, x2 = 0.9478	53
297.42 K, 2588 kPa, Gas, x2 = 0.9478	57
297.42 K, 2854 kPa, Gas, x2 = 0.9478	64.1
297.42 K, 3638 kPa, Gas, x2 = 0.9478	87.4
297.42 K, 3822 kPa, Gas, x2 = 0.9478	93.7
297.42 K, 3996 kPa, Gas, x2 = 0.9478	99.9
297.42 K, 4401 kPa, Gas, x2 = 0.9478	115.6
297.42 K, 4507 kPa, Gas, x2 = 0.9478	120.1
297.42 K, 4600 kPa, Gas, x2 = 0.9478	124.4
297.42 K, 4703 kPa, Gas, x2 = 0.9478	129.2
297.43 K, 3223 kPa, Gas, x2 = 0.9478	74.6
297.43 K, 3396 kPa, Gas, x2 = 0.9478	79.8
297.43 K, 4206 kPa, Gas, x2 = 0.9478	107.7
297.44 K, 3064 kPa, Gas, x2 = 0.9478	70.1
298.09 K, 26076 kPa, Liquid, x2 = 0.9478	980
298.09 K, 26503 kPa, Liquid, x2 = 0.9478	982.1
298.1 K, 7001 kPa, Liquid, x2 = 0.9478	819.7
298.1 K, 9007 kPa, Liquid, x2 = 0.9478	854
298.1 K, 21016 kPa, Liquid, x2 = 0.9478	954.5
298.1 K, 21994 kPa, Liquid, x2 = 0.9478	959.8
298.1 K, 22537 kPa, Liquid, x2 = 0.9478	962.6
298.1 K, 23522 kPa, Liquid, x2 = 0.9478	967.7
298.1 K, 24029 kPa, Liquid, x2 = 0.9478	970.2
298.1 K, 24505 kPa, Liquid, x2 = 0.9478	972.6
298.1 K, 25050 kPa, Liquid, x2 = 0.9478	975.1
298.1 K, 25593 kPa, Liquid, x2 = 0.9478	977.9
298.1 K, 27025 kPa, Liquid, x2 = 0.9478	984.3
298.1 K, 27508 kPa, Liquid, x2 = 0.9478	986.6
298.1 K, 27973 kPa, Liquid, x2 = 0.9478	988.6
298.1 K, 28400 kPa, Liquid, x2 = 0.9478	990.6
298.1 K, 32016 kPa, Liquid, x2 = 0.9478	1004.6
298.1 K, 32518 kPa, Liquid, x2 = 0.9478	1006.5
298.1 K, 33068 kPa, Liquid, x2 = 0.9478	1008.6
298.1 K, 33435 kPa, Liquid, x2 = 0.9478	1009.8

From the NIST ThermoML archive (doi:10.1016/j.fluid.2017.09.014)
